Laboratory results as given in ChEMBL document CHEMBL1201862, “PubChem BioAssay data set” (2004).
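1) Cells in 96-well plates. 2) Compound, 48 h, 5 concentrations. 3) Linear interpolation between surrounding doses. 4) Unreached endpoint = highest concentration. The concentration for 50% growth inhibition is given as GI50.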 Calls of active or inactive are those of the source. Cut-off read from the data, not from the text of the source: active = GI50 up to about 1.1 µM and inactive = higher.

Key:
Assay in all cases: growth of human tumour cells (NCI), 48 h
NCI-H226 = tested on: NCI-H226
786-0 = tested on: 786-0
UACC-62 = tested on: UACC-62
OVCAR-8 = tested on: OVCAR-8
RPMI-8226 = tested on: RPMI-8226
COLO 205 = tested on: COLO 205
IGROV-1 = tested on: IGROV-1
SK-OV-3 = tested on: SK-OV-3
RXF 393 = tested on: RXF 393
T47D = tested on: T47D
SN12C = tested on: SN12C
SW-620 = tested on: SW-620
UACC-257 = tested on: UACC-257
Malme-3M = tested on: Malme-3M
NCI-H460 = tested on: NCI-H460
SR = tested on: SR
HCT-116 = tested on: HCT-116
TK-10 = tested on: TK-10
CCRF-CEM = tested on: CCRF-CEM
HL-60 = tested on: HL-60

| SMILES | GI50 (NCI-H226) | GI50 (786-0) | GI50 (UACC-62) | GI50 (OVCAR-8) | GI50 (RPMI-8226) | GI50 (COLO 205) | GI50 (IGROV-1) | GI50 (SK-OV-3) | GI50 (RXF 393) | GI50 (T47D) | GI50 (SN12C) | GI50 (SW-620) | GI50 (UACC-257) | GI50 (Malme-3M) | GI50 (NCI-H460) | GI50 (SR) | GI50 (HCT-116) | GI50 (TK-10) | GI50 (CCRF-CEM) | GI50 (HL-60) |
| --- | --- | --- | --- | --- | --- | --- | --- | --- | --- | --- | --- | --- | --- | --- | --- | --- | --- | --- | --- | --- |
| CC1=C(Nc2c(C)cc(O)cc2O)C(=O)C=c2oc3c(c21)C(C)=C(Nc1c(C)cc(O)cc1O)C(=O)C=3 | 43.9 µM (inactive) | 54.1 µM (inactive) | 37.2 µM (inactive) | 38 µM (inactive) | 28.8 µM (inactive) | 20.8 µM (inactive) | 30.1 µM (inactive) | 45.7 µM (inactive) | > 100 µM (inactive) | 52.4 µM (inactive) | 30.4 µM (inactive) | 35.5 µM (inactive) | 29.8 µM (inactive) | 21.9 µM (inactive) | 30.3 µM (inactive) | 0.0313 µM (active) | 26.5 µM (inactive) | 94.8 µM (inactive) | – | – |
| COCC1OC([P+](c2ccccc2)(c2ccccc2)c2ccccc2)CC(OC)C1OC (configuration not stated) | 33.9 µM (inactive) | 53.2 µM (inactive) | 49.5 µM (inactive) | 28.8 µM (inactive) | – | – | – | 32.6 µM (inactive) | 27.2 µM (inactive) | 20.6 µM (inactive) | 29.1 µM (inactive) | 35.5 µM (inactive) | 21 µM (inactive) | 33.9 µM (inactive) | – | 17.4 µM (inactive) | 32.6 µM (inactive) | 55.7 µM (inactive) | – | – |
| CCOC(=O)c1c(N2CCOCC2)[nH]c(=O)c(C(c2cccs2)c2c(O)c(C(=O)OCC)c(N3CCOCC3)[nH]c2=O)c1O | > 100 µM (inactive) | > 100 µM (inactive) | > 100 µM (inactive) | > 100 µM (inactive) | > 100 µM (inactive) | > 100 µM (inactive) | – | > 100 µM (inactive) | > 100 µM (inactive) | > 100 µM (inactive) | > 100 µM (inactive) | > 100 µM (inactive) | > 100 µM (inactive) | > 100 µM (inactive) | > 100 µM (inactive) | > 100 µM (inactive) | > 100 µM (inactive) | > 100 µM (inactive) | > 100 µM (inactive) | – |
| CCCCCCCC(=O)NC(C)(C)C(=O)NCC(=O)NC(CC(C)C)C(=O)NC(C)(C)C(=O)NCC(=O)NCC(=O)NC(CC(C)C)C(=O)NC(C)(C)C(=O)NCC(=O)NC(C(=O)NC(CO)CC(C)C)C(C)CC (configuration not stated) | 4.5 µM (inactive) | 4.61 µM (inactive) | 4.14 µM (inactive) | 4.21 µM (inactive) | 0.935 µM (active) | 3.81 µM (inactive) | 3.84 µM (inactive) | 4.2 µM (inactive) | 4.05 µM (inactive) | 3.14 µM (inactive) | 4.28 µM (inactive) | 4.02 µM (inactive) | 4.41 µM (inactive) | 4.82 µM (inactive) | 4.48 µM (inactive) | 3.99 µM (inactive) | 3.78 µM (inactive) | 4.66 µM (inactive) | 4.26 µM (inactive) | – |
| COc1cc2c(cc1O)-c1c(OC)c(O)cc3c1C(C2)N(C)CC3 (configuration not stated) | > 100 µM (inactive) | > 100 µM (inactive) | > 100 µM (inactive) | > 100 µM (inactive) | > 100 µM (inactive) | > 100 µM (inactive) | > 100 µM (inactive) | > 100 µM (inactive) | > 100 µM (inactive) | > 100 µM (inactive) | > 100 µM (inactive) | > 100 µM (inactive) | > 100 µM (inactive) | – | > 100 µM (inactive) | > 100 µM (inactive) | > 100 µM (inactive) | > 100 µM (inactive) | > 100 µM (inactive) | > 100 µM (inactive) |
| CCc1n[nH]c(=O)n1N1C(=O)CCC1=O | > 100 µM (inactive) | > 100 µM (inactive) | > 100 µM (inactive) | > 100 µM (inactive) | > 100 µM (inactive) | > 100 µM (inactive) | > 100 µM (inactive) | > 100 µM (inactive) | > 100 µM (inactive) | > 100 µM (inactive) | > 100 µM (inactive) | > 100 µM (inactive) | > 100 µM (inactive) | > 100 µM (inactive) | > 100 µM (inactive) | > 100 µM (inactive) | > 100 µM (inactive) | > 100 µM (inactive) | > 100 µM (inactive) | – |
| O=C(Nc1ccc(Cl)cc1)c1cc2c(cc1Cl)Sc1nccn1S2(=O)=O | 51.3 µM (inactive) | 29.6 µM (inactive) | – | 51.3 µM (inactive) | – | > 100 µM (inactive) | 60.1 µM (inactive) | 64 µM (inactive) | 27.5 µM (inactive) | > 100 µM (inactive) | 49.7 µM (inactive) | 27.5 µM (inactive) | – | 77.8 µM (inactive) | 42.5 µM (inactive) | > 100 µM (inactive) | 34.6 µM (inactive) | – | > 100 µM (inactive) | – |
| COC(=O)C1(C#N)C(C)(C)N=C(c2ccccc2)C12CCCCC2 (configuration not stated) | – | > 100 µM (inactive) | 76.9 µM (inactive) | > 100 µM (inactive) | 63.4 µM (inactive) | > 100 µM (inactive) | > 100 µM (inactive) | > 100 µM (inactive) | > 100 µM (inactive) | > 100 µM (inactive) | > 100 µM (inactive) | > 100 µM (inactive) | > 100 µM (inactive) | > 100 µM (inactive) | > 100 µM (inactive) | 14.7 µM (inactive) | > 100 µM (inactive) | > 100 µM (inactive) | > 100 µM (inactive) | 45.4 µM (inactive) |
| CC(=O)Oc1ccc(/C=C/C(=O)O[C@H]2CCCC[C@@H]2OC(=O)/C=C/c2ccc(OC(C)=O)c(OC(C)=O)c2)cc1OC(C)=O | – | 4.57 µM (inactive) | 4.84 µM (inactive) | 8.61 µM (inactive) | 4.07 µM (inactive) | 16.7 µM (inactive) | 4.09 µM (inactive) | 11.8 µM (inactive) | 11.1 µM (inactive) | 11.5 µM (inactive) | 9.23 µM (inactive) | 2.24 µM (inactive) | 11.8 µM (inactive) | 15.6 µM (inactive) | 3.85 µM (inactive) | 4.34 µM (inactive) | 4.58 µM (inactive) | 6.93 µM (inactive) | 2.75 µM (inactive) | – |
| COc1cc2cc(C(=O)N3CC(COS(C)(=O)=O)c4c3cc(N)c3ccccc43)[nH]c2c(OC)c1OC (configuration not stated) | 0.0469 µM (active) | < 0.01 µM (active) | 0.0146 µM (active) | 0.0136 µM (active) | 0.0175 µM (active) | 0.0244 µM (active) | 0.0228 µM (active) | 0.0444 µM (active) | 0.0177 µM (active) | 0.0385 µM (active) | 0.0221 µM (active) | 0.0148 µM (active) | 0.0209 µM (active) | – | < 0.01 µM (active) | < 0.01 µM (active) | 0.0108 µM (active) | < 0.01 µM (active) | 0.0128 µM (active) | < 0.01 µM (active) |
| COC(=O)NCCc1n[nH]c2c1C(=O)C=C(Nc1ccccc1)C2=O | – | 47.3 µM (inactive) | 17.3 µM (inactive) | 17.9 µM (inactive) | 19.1 µM (inactive) | 16.8 µM (inactive) | 24.5 µM (inactive) | 74.6 µM (inactive) | 41.2 µM (inactive) | 30.1 µM (inactive) | 34.8 µM (inactive) | 25.6 µM (inactive) | 16.7 µM (inactive) | 12.7 µM (inactive) | 32.4 µM (inactive) | 10.9 µM (inactive) | 21.7 µM (inactive) | > 100 µM (inactive) | 13.7 µM (inactive) | 19.2 µM (inactive) |
